Counter-ions that a name gives are not always drawn.
Biological target: human NK1R (Homo sapiens, UniProt P25103)
Test: biochemical
Format: binding
Conditions: displacement of 125I-substance P; human NK1R in COS or CHO cells
Procedure: To express the cloned human neurokinin-1-receotor (NK1R) transiently in COS, the cDNA for the human NK1R was cloned into the expression vector pCDM9 which was derived from pCDM8 (INVITROGEN) by inserting the ampicillin resistance gene (nucleotide 1973 to 2964 from BLUESCRIPT SK+ (trademark, […], La Jolla, Calif., U.S.A.)) into the Sac II site. Transfection of 20 ug of the plasmid DNA into 10 million COS cells was achieved by electroporation in 800 μl of transfection buffer (135 mM NaCl, 1.2 mM CaCl2, 1.2 mM MgCl2, 2.4 mM K2 HPO4, 0.6 mM KH2 PO4, 10 mM glucose, 10 mM N-2-hydroxyethyl-piperazine-N'-2-ethane sulphonic acid (HEPES) pH 7.4) at 260 V and 950 μF using the IBI GENEZAPPER (trademark IBI, New Haven, Conn., U.S.A.). The cells were incubated in 10% fetal calf serum, 2 mM glutamine, 100 U/ml penicillin-streptomycin, and 90% DMEM media (GIBCO, Grand Island, N.Y., U.S.A.) in 5% CO2 at 37° C. for three days before the binding assay.
To establish a stable cell line expressing cloned human NK1R, the cDNA was subcloned into the vector pRcCMV (INVITROGEN). Transfection of 20 ug of the plasmid DNA into CHO cells was achieved by electroporation in 800 μl of transfection buffer supplemented with 0.625 mg/ml Herring sperm DNA at 300 V and 950 μF using the IBI GENEZAPPER (IBI). The transfected cells were incubated. in CHO media [10% fetal calf serum, 100 U/ml penicillin-streptomycin, 2 mM glutamine, 1/500 hypoxanthinethymidine (ATCC), 90% IMDM media (JRH BIOSCIENCES, Lenexa, Kans., U.S.A.), 0.7 mg/ml G418 (GIBCO)] in 5% CO2 at 37° C. until colonies were visible. Each colony was separated and propagated. The cell clone with the highest number of human NK1R was selected for subsequent applications such as drug screening.
The binding assay of human NK1R expressed in either COS or CHO cells is based on the use of ^125 I-substance P (^125 I-SP, from DU PONT, Boston, Mass.) as a radioactively labeled ligand which competes with unlabeled substance P or any other ligand for binding to the human NK1R. […] The tubes were incubated at 4° C. or at room temperature for 1 hour with gentle shaking. The bound radioactivity was separated from unbound radioactivity by GF/C filter (BRANDEL, Gaithersburg, Md.) which was prewetted with 0.1% polyethylenimine. The filter was washed with 3 ml of wash buffer (50 mM Tris pH 7.5, 5 mM MnCl2, 150 mM NaCl) three times and its radioactivity was determined by gamma counter.

human NK1R, sequence (P25103 whole entry): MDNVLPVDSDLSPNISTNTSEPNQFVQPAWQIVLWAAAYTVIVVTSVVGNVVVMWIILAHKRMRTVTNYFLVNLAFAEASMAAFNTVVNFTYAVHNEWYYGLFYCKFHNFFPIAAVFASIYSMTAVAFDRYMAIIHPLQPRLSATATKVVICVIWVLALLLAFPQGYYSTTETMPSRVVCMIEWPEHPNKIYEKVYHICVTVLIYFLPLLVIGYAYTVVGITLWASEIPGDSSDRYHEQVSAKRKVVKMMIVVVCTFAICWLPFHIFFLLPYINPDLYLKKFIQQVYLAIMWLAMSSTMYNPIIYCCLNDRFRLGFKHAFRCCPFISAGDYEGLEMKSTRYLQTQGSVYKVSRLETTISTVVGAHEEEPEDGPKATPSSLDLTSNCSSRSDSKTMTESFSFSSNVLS

IC50 | Compound
4 nM | Cc1cc(C)cc(COCC(NCC(=O)NCC(N)=O)C(c2ccccc2)c2ccccc2)c1 (stereo not shown) [Example 46, N-(1-(((3',5'-Dimethyl)phenyl)methyloxy)-3,3-diphenylprop-2-yl)glycylglycine amide]
0.4 nM | CC(NC(COCc1cc(C(F)(F)F)cc(C(F)(F)F)c1)C(c1ccccc1)c1ccccc1)C(N)=O (single isomer, unassigned) [41 (diastereomer A), 1-((3',5'-Bis(trifluoromethyl)phenyl)methyloxy)-2-((1-(carboxamido)ethyl)ammonium)-3,3-diphenylpropane oxalate salt]
20 nM | Cc1cc(C)cc(COCC(C(c2ccccc2)c2ccccc2)N2CCCC2)c1 (stereo not shown) [Example 13, 3,3-Diphenyl-1-((3,5-dimethylphenyl)methyloxy)-2-(1-pyrrolidinium)propane tosylate salt]
30 nM | NCC(=O)NC(COCc1cc(C(F)(F)F)cc(C(F)(F)F)c1)C(c1ccccc1)c1ccccc1 (stereo not shown) [Example 61, 2-(2-Ammoniumacetamido)-1-((3,5-bis(trifluoromethyl)phenyl)methyloxy)-3,3-diphenylpropane oxalate salt hemihydrate]
0.4 nM | CC(N[C@H](COCc1cc(C(F)(F)F)cc(C(F)(F)F)c1)C(c1ccccc1)c1ccccc1)C(N)=O (single isomer, unassigned) [58 (diastereomer A)]
580 nM | Cc1cc(C)cc(COCC(NC(=O)c2ccccc2)C(c2ccccc2)c2ccccc2)c1 (stereo not shown) [Example 40, 2-Benzamido-1-(((3,5-dimethyl)phenyl)methyloxy)3,3-diphenylpropane]
160 nM | COc1cccc(C(Cc2ccccc2)C(N)COCc2cc(C(F)(F)F)cc(C(F)(F)F)c2)c1 (mixture of isomers) [70 (mixture of diastereomers), 2-Amino-1-((3,5-bis(trifluoromethyl)phenyl)methyloxy)-3-(3-methoxyphenyl)-4-phenylbutane]
200 nM | NC(COCc1cccc(Br)c1)C(c1ccccc1)c1ccccc1 (stereo not shown) [Example 31, 2-Ammonium-1-((3-bromophenyl)methyloxy)-3,3-diphenylpropane oxalate salt]
19 nM | Cc1cc(C)cc(COCC(C(c2ccccc2)c2ccccc2)[N+](C)(C)C)c1 (stereo not shown) [Example 12, 1-((3,5-Dimethylphenyl)methyloxy)-3,3-diphenyl-2-(N,N,N-trimethylammonium)propane iodide salt]
35 nM | Cc1cc(C)cc(COCC(NC=O)C(c2ccccc2)c2ccccc2)c1 (stereo not shown) [Example 23, 2-Formamido-1-((3,5-dimethylphenyl)methyloxy)-3,3-diphenylpronane]
200 nM | CN(C)CC(=O)NC(COCc1cc(C(F)(F)F)cc(C(F)(F)F)c1)C(c1ccccc1)c1ccccc1 (stereo not shown) [Example 62, 2-(2-(Dimethylamino)acetamido)-1-((3,5-bis(trifluoromethyl)phenyl)methyloxy)-3,3-diphenylpropane]
35 nM | CS(=O)(=O)NC(COCc1cc(C(F)(F)F)cc(C(F)(F)F)c1)C(c1ccccc1)c1ccccc1 (stereo not shown) [Example 69, 1-((3,5-Bis(trifluoromethyl)phenyl)methyloxy)-3,3-diphenyl-2-methylsulphonamidopropane]
160 nM | Cc1cc(C)cc(COC(=O)C(N)C(c2ccccc2)c2ccccc2)c1 (stereo not shown) [Example 5, (3,5-Dimethylphenyl)methyl 2-ammonium-3,3-diphenylpropanoate tosylate salt]
220 nM | NC(C(=O)NCc1cc(C(F)(F)F)cc(C(F)(F)F)c1)C(c1ccccc1)c1ccccc1 (stereo not shown) [Example 67, 2-Amino-3,3-diphenyl-N-((3,5-bis(trifluoromethyl)phenyl)methyl)propionamide]
35 nM | COC(=O)CCNC(COCc1cc(C(F)(F)F)cc(C(F)(F)F)c1)C(c1ccccc1)c1ccccc1 (stereo not shown) [Example 65, 1-((3,5-Bis(trifluoromethyl)phenyl)methyloxy)-2-(2-(carbomethoxy)ethylamino)-3,3-diphenylpropane]
80 nM | O=C(CCl)NC(COCc1cc(C(F)(F)F)cc(C(F)(F)F)c1)C(c1ccccc1)c1ccccc1 (stereo not shown) [Example 60]
